System: rabbit aortic smooth muscle
Assay: Ca+2 antagonism: relaxation of KCl-depolarised rabbit thoracic aorta strips
Format: cell-based
Conditions: 20 min, 100 mM KCl contracted aortic strips; for inhibition at 10 µM: Oryctolagus cuniculus, test compound 1 x 10^-5 M, 20 min after addition, mean of two experiments, read-out: percent relaxation (P. R.)
Method: Here, transverse strips (10 mm x 2.5 mm) from the thoracic aorta were cut and suspended vertically in a jacketed (37 °C - 50 ml volume) organ bath in physiological saline solution (PSS) aerated with 95 % Oz/5 % CO9. The composition of PSS was as follows (mM) : NaCI 112, KCI 5, NaHC03 25, KH2PO4 1, MgS04 1.2, CaCI2 2.5, dextrose 10. The lower end of each tissue strip was attached to a fixed post and the upper end to a Statham UC-4 transducer. Changes in force development were recorded on a Beckman Dynograph Polygraphic Recorder.
Following equilibration, the muscles were contracted in a depolarizing solution of PSS in which 100 mM KCI was substituted for an equimolar concentration of NaCI. Following attainment of steady-state isometric force (20 min.), the test compound was added to afford a final concentration of 1 x 10-^5 M. The inhibitory effect, expressed as percent relaxation, was determined from the mean of two experiments twenty minutes after the addition of the compound being tested.
The following examples illustrate the preparation of a representative number of compounds of this invention. After each example, the Ca^2+ antagonist activity of the compound is presented in terms of percent relaxation (P. R.) at 10-^5 M concentration unless indicated otherwise. Similarly, the percentage mortality of standard experimental test animals upon coronary ligation (C. L.) is presented for comparison with the control mortality rate of 73 percent of animals receiving vehicle alone.

| Structure (SMILES) | inhibition at 10 µM [%] | percent relaxation (P. R.) (test compound at 10-^s M as printed) |
| --- | --- | --- |
| COc1cc(OC)cc(N(C(C)C)S(=O)(=O)CCCN(C)CCc2ccc(OC)c(OC)c2)c1 [Example 1, N-(3,5-Dimethoxyphenyl)-3-[(2-(3,4-dimethoxyphenyl)ethyl]-methylamino]-N-(1-methylethyl)-1-prop-anesulphonamide] | 90 | 27 |
| COc1ccc(CCN(C)CCCS(=O)(=O)N(c2ccc(OC)c(OC)c2)C(C)C)cc1OC [Example 2, N-(3,4-Dimethoxyphenyl)-3-[[2-(3,4-dimethoxyphenyl)ethyl]methylaminol]-N-(1-methylethyl)-1-prop-anesulphonamide] | 74 | – |
| COc1ccc(CCN(C)CCCS(=O)(=O)N(c2cc(OC)c(OC)c(OC)c2)C(C)C)cc1OC [Example 3, 3-[[2-(3,4-Dimethoxyphenyl)ethyl]methylamino]-N-(1-methylethyl)-N-(3,4,5-trimethoxyphenyl)-1-prop-anesulphonamide] | 62 | – |
| COc1ccc(CCN(C)CCCS(=O)(=O)N(c2cc(Cl)cc(Cl)c2)C(C)C)cc1OC [Example 4, N-(3,5-Dichlorophenyl)-3-[[2-(3,4-dimethoxyphenyl)ethyl]methylamino]-N-(1-methylethyl)-1-propanesulp-honamide] | 86 | – |
| COc1ccc(CCN(C)CCCS(=O)(=O)Nc2cccc(C(F)(F)F)c2)cc1OC [Example 5, N-(3-Trifluoromethylphenyl)-3-[[2-(3,4-dimethoxyphenyl)-ethyl)methylamino]-1-propanesulphonamide] | 51 | – |
| COc1ccc(CCN(C)CCCS(=O)(=O)N(c2cccc(C(F)(F)F)c2)C(C)C)cc1OC [Example 6, N-(3-Trifluoromethylphenyl)-3-[[2-(3,4-dimethoxyphenyl)ethyl]methylamino]-N-(1-methylethyl)-1-prop-anesulphonamide] | 78.5 | – |
| COc1ccc(CCN(C)CCCN(C(C)C)S(=O)(=O)c2cccc(C(F)(F)F)c2)cc1OC [Example 7, N-[3-[[2-(3,4-Dimethoxyphenyl)ethyl]methylamino]propyl]-N-(1-methylethyl)-3-(trifluoromethyl) benzenesulphonamide] | 86.6 | – |
| COc1ccc(CCN(C)CCCCN(C(C)C)S(=O)(=O)c2ccc(Cl)c(Cl)c2)cc1OC [Example 14, 3,4-Dichloro-N-(4-[[2-(3,4-dimethoxyphenyl)ethyl]methylamino]butyl]-N-(1-methylethyl) benzenesulphonamide] | 68 | – |
| COc1ccc(CCN(C)CCCN(C(C)C)S(=O)(=O)c2ccc(OC)c(OC)c2OC)cc1OC [Example 15, N-[3-[[2-(3,4-dimethoxyphenyl)ethyl]methylamino]propyl]-N-(1-methylethyl)-2.3,4-trimethoxybenzenesul-phonamide] | 80 | – |
